Publication PMC11969438 (Inorganic Chemistry Frontiers, 2025)

Legend:
[1] = Reduction kinetics with 10 eq. L-ascorbic acid in phosphate buffer, UHPLC; type: physicochemical; conditions: 10 eq. AA, PB pH 7.4, 20 °C; for original compound left in presence of AA: after 5 h
Method: (§1) PB (150 mM, pH 7.4) containing 1 mM platinum compound was incubated at 20 °C, with and without the addition of 10 eq. of AA. The reaction was monitored using a Thermo Scientific Dionex UltiMate 3000 UHPLC system with a Waters Acquity UPLC BEH C18 1.7 μm 3.0 × 50 mm column. Milli-Q water containing 0.1% formic acid and acetonitrile containing 0.1% formic acid were used as eluents. A gradient of 5–95% over 5 min was used with a flow of 0.6 mL min^−1. To evaluate the current state of the reaction, the peak area of the parental complex was used.

CT-26 tumors = assay: Anticancer efficacy in vivo, syngeneic colorectal carcinoma; set-up: species or system BALB/c mice; conditions: i.v. twice a week for two weeks, equimolar to 9 mg kg^−1 oxaliplatin
Method: Tumor size was determined daily via manual caliper measurement. […] Animals were euthanized via cervical dislocation.

THP1-Dual cells [2] = assay: Western blot analysis of STING downstream pathway, DNA damage and cell death markers; type: cell-based, human; conditions: 24 h
Method: The THP1-Dual cell model was seeded at 1 × 10^6 cells per well in six-well plates. After 24 h of recovery, the compounds were applied at the concentrations indicated. After 24 h of drug exposure, whole-cell protein isolation was performed as described previously.[14] Sodium dodecyl sulfate polyacrylamide gel electrophoresis was performed. Proteins were transferred onto polyvinylidene difluoride membranes (Thermo Scientific, Waltham, MA, USA). Antibodies targeting STING (##13 647; 1 : 1000), phospho-STING (#19 781; 1 : 500), TBK1 (#3504; 1 : 500), IRF-3 (#4302; 1 : 500), phospho-p65 (#3033; 1 : 500), ISG15 (#2743; 1 : 1000), caspase-3 (#9665; 1 : 1000), cleaved caspase-3 (#9661; 1 : 1000), PARP (#9532; 1 : 1000), and cleaved PARP (#9541; 1 : 1000) were purchased from Cell Signaling Technology (Danvers, MA, USA). The p65 antibody (#sc-372; 1 : 1000) was purchased from Santa Cruz and the phospho-H2A.X antibody (#05-636-I; 1 : 500) was obtained from Merck (Darmstadt, Germany). The anti-β-actin (#5441; 1 : 2000) antibody was obtained from Sigma-Aldrich. The anti-mouse IgG (#A0168; 1 : 10 000) horseradish peroxidase (HRP)-coupled secondary antibody was purchased from Sigma-Aldrich, and the anti-rabbit IgG (#7074; 1 : 5000) HRP-linked secondary antibody was obtained from Cell Signaling Technology.

THP1-Dual cells [3] = assay: Quantitative RT-PCR of target genes downstream of STING; type: cell-based, human; conditions: 24 h, prodrugs 100 μM, MSA-2 25 μM
Method: The THP1-Dual cell model was seeded at 1 × 10^6 cells per well in six-well plates. After 24 h of recovery, the compounds were applied at the concentrations indicated. After 24 h of drug exposure, total RNA was isolated using TRIzol reagent (Thermo Fisher Scientific, MA, USA), as described previously.[12] RNA was reverse transcribed into cDNA using RevertAid Reverse Transcriptase (Thermo Fisher Scientific). Real-time PCR was performed using the GoTaq® RT-qPCR system (Promega) with a CFX96 Touch Real-Time PCR Detection System (Bio-Rad Laboratories). Relative mRNA levels were quantified using the 2^−ddCT method.[54] RPL41 was used as a housekeeping gene. Human-specific primers were purchased from Eurofins Genomics (Ebersberg, Germany) with the following sequences: RPL41: fwd (5′-[…]-3′), rev (5′-[…]-3′); IFNB1: fwd (5′-CTTGGATTCCTACAAAGAAGCAGC-3′), rev (5′-[…]-3′); ISG15: fwd (5′-[…]-3′), rev (5′-[…]-3′); IFIT1: fwd (5′-[…]-3′), rev (5′-[…]-3′); CXCL10: fwd (5′-[…]-3′), rev (5′-[…]-3′); and CCL5: fwd (5′-[…]-3′), rev (5′-[…]-3′).

THP1-Dual cells [4] = assay: Cytokine and chemokine secretion in cell culture supernatant, Luminex; type: cell-based, human; conditions: 24 h, prodrug 100 μM, MSA-2 25 μM
Method: Quantification of secreted protein targets in either cell culture SN or in plasma of treated animals was performed using a ProcartaPlex (96-well) multiplex assay panel (Thermo Fisher Scientific) in the xMAP detection platform (Luminex). For the in vitro detection of secreted proteins, THP1-Dual cells were seeded at 1 × 10^5 cells per well in 96-well plates in RPMI-1640 medium, supplemented with 10% FCS, L-glutamine and Pen-Strep. After 24 h of recovery, the compounds were applied at the concentrations indicated in triplicate.
After 24 h of drug incubation, the cell culture SN of technical triplicate was collected, pooled, centrifuged (400g, 10 min, 4 °C), transferred into a fresh tube, and stored at −20 °C.
Next, the ProcartaPlex (96-well) multiplex assay panel was performed according to the manufacturer's recommendations. In brief, the capture bead mix was incubated with test samples (undiluted SN or mouse plasma) or standard mix overnight. The SN of three independent experiments or the plasma of four animals per treatment group was loaded onto the multiplex assay plate. Next, biotinylated detection antibody mix and Streptavidin-PE were added to the plate. Following the recommended washing steps, the samples were incubated in a reading buffer and were measured using a Luminex xMAP platform (Bio-Plex MAGPIX Multiplex Reader; Bio-Rad Laboratories) and analyzed using xPONENT software.

[5] = tested on: THP1-Dual, HCT116, HCT116/OxR and CT-26 cells; assay: MTT-based cell viability assay, 72 h, statements over all investigated cell lines; set-up: species or system human and murine; conditions: none of the investigated cell lines vulnerable, read-out: IC50 of free single agent
Method: Cell models were seeded (2–2.5 × 10^3 cells per well) in 96-well plates. After 24 h of recovery, the compounds were applied at the concentrations indicated in triplicate. Cell viability was determined after 72 h of continuous drug incubation using an MTT-based cell viability assay (EZ4U, Biomedica, Vienna, Austria) according to the manufacturer's recommendations. Absorbance was measured at 450 nm (vs. 620 nm as reference) using a multimode microplate reader (Tecan Spark, Zurich, Switzerland). Half-maximal inhibitory concentrations (IC50 values) were derived via interpolation from dose–response curves, modeled with the four-parameter logistic (4PL) nonlinear regression model in GraphPad Prism (La Jolla, CA, USA) from at least three independent experiments.

[6] = tested on: IRF pathway (STING-dependent); assay: IRF-inducible luciferase reporter in THP1-Dual reporter cell model; type: cell-based, human; conditions: for EC50: 24 h exposure, normalized to cell viability, oxaliplatin in combinations 5 μM
Excerpt: (§2) The THP1-Dual™ reporter cell model for simultaneously monitoring the activity of the IRF and NF-κB pathway contains an IRF-inducible luciferase reporter under the control of an ISG54 minimal promoter in conjunction with five interferon (IFN)-stimulated response elements, and an induced SEAP driven by an IFN-β minimal promoter fused to five copies of the NF-κB consensus transcriptional response element and three copies of the c-Rel binding site. The luciferase and SEAP reporter are measurable in the cell culture supernatant using QUANTI-Luc™ 4 Lucia/Gaussia (InvivoGen) and QUANTI-Blue™ (InvivoGen) solution, respectively. Cells were seeded at 1 × 10^5 cells per well in 96-well plates in RPMI-1640 medium, supplemented with 10% FCS, L-glutamine and Pen-Strep. After 2 h of recovery, the compounds were applied at the concentrations indicated in triplicate. The cell culture supernatant (SN) was collected after 24 h of drug incubation and secreted luciferase and SEAP reporter levels were measured according to the manufacturer's recommendations. In brief, for the detection of luciferase, 20 μL of SN were transferred into 96-well white opaque plates, and 30 μL of QUANTI-Luc™ reagent were added per well using an injector module in a multimode microplate reader (Tecan Spark, Zurich, Switzerland). Luminescence was recorded at a reading time of 0.1 second. For the detection of SEAP, 10 μL of SN were transferred to 96-well plates and 90 μL of QUANTI-Blue™ were added per well. Absorbance was measured at 620 nm. Half-maximal effective concentrations (EC50 values) were derived via interpolation from dose–response curves, modeled with the four-parameter logistic (4PL) nonlinear regression model in GraphPad Prism. For comparison, the maximal response rate of the prodrug was depicted in the percent of the maximal response rate achieved by SR-717 or MSA-2 (%EMAX) at the respective concentrations tested. Activatability, tested in co-incubation experiments with AA (50 μM), was expressed as the area under the curve (AUC) ratio of +AA vs. −AA-treated cells. The STING-dependency of the reporter induction was tested by co-administration of the STING inhibitor H-151 (10 μM), added to the cell culture medium 2 h before applying the investigated compounds. In addition to monitoring secreted reporter levels, the cell viability of the reporter cells was determined after 24 h of drug treatment by an MTT-based cell viability assay.

[7] = tested on: NF-κB pathway (STING-dependent); assay: NF-κB-inducible SEAP reporter in THP1-Dual reporter cell model; type: cell-based, human; conditions: for EC50: 24 h exposure, normalized to cell viability, oxaliplatin in combinations 5 μM
Excerpt: as §2

[8] = Hydrolytic stability in phosphate buffer, UHPLC; type: physicochemical; conditions: 1 mM, 150 mM PB pH 7.4, 20 °C, over 5 h
Method: as §1

THP1-Dual cells [9] = assay: Intracellular platinum accumulation in vitro by ICP-MS; type: cell-based, human; conditions: 3 h exposure, compared to oxaliplatin
Method: The THP1-Dual cell model was seeded at 1 × 10^6 cells per well in six-well plates. After 24 h of recovery, the compounds were applied at the concentrations indicated in triplicate. After 3 h of drug exposure, the cells were prepared as published previously.[13] […] The lysate was filled up to 8 mL with water. The platinum concentration was determined by ICP-MS analysis. Platinum and rhenium standards were derived from CPI International (Amsterdam, the Netherlands). The total platinum content was determined with an Agilent 7800 quadrupole-based ICP-MS instrument (Agilent Technologies, Tokyo, Japan) equipped with an Agilent SPS 4 autosampler (Agilent Technologies, Tokyo, Japan) and a MicroMist nebulizer at a sample uptake rate of approximately 0.2 mL min^−1. […] Argon was used as a plasma gas (15 L min^−1) and as a carrier gas (∼1.1 L min^−1). The dwell time was set to 0.1 s and the measurements were performed in 12 replicates with 100 sweeps. Rhenium served as an internal standard for platinum.

[10] = H-151 10 μM added 2 h before the compounds
[11] = 24 h, maximal response relative to SR-717

CC(=O)[O][Pt-2]12([O]C(=O)c3ccccc3)([NH2+][C@@H]3CCCC[C@H]3[NH2+]1)[O]C(=O)C(=O)[O]2 [Ox-Bz]
original compound left in presence of AA [1]: approximately 95%

CC(=O)[O][Pt-2]12([O]C(=O)c3ccc(F)c(F)c3)([NH2+][C@@H]3CCCC[C@H]3[NH2+]1)[O]C(=O)C(=O)[O]2 [Ox-Bz-F2]
original compound left in presence of AA [1]: approximately 95%

CC(=O)Nc1cc(F)c(F)cc1C(=O)[O][Pt-2]12([O]C(C)=O)([NH2+][C@@H]3CCCC[C@H]3[NH2+]1)[O]C(=O)C(=O)[O]2 [Ox-Bz-F2-NHAc]
original compound left in presence of AA [1]: 40%

COc1cc2cc(C(=O)CCC(=O)O)sc2cc1OC [MSA-2]
tumor growth (CT-26 tumors): significantly inhibited malignant growth
DNA damage (p-H2A.X upregulation, cleavage of caspase-3 and PARP) (THP1-Dual cells [2]): induced DNA damage
induction of ISG15 (THP1-Dual cells [2]): triggered
phosphorylation of NF-κB (p65) (THP1-Dual cells [2]): only detected in cells treated with MSA-2
mRNA induction of immune response genes (IFN-β, ISG15, IFIT1, CXCL10, CCL5) (THP1-Dual cells [3]): distinctly induced
secretion of cytokines and chemokines (THP1-Dual cells [4]): induced distinct secretion of cytokines and chemokines
IC50 [5]: > 75 µM
IRF EC50 ratio fold MSA-2 ([6]; 24 h): 1.0 fold
activation of IRF signaling pathway ([6]; 24 h): robustly activated
fold lower IRF-inducing activity compared to SR-717 ([6]; 24 h): ~3.1 fold
IRF %EMAX of MSA-2 ([6]; 24 h, maximal response relative to MSA-2, highest tested dose 100 μM): 100%
EC50 [6]: 9.1 µM
impact of reducing conditions on IRF-induced reporter signal (AUC ratio +AA/−AA) ([6]; AA 50 μM): no notable modulation
NF-κB EC50 ratio fold MSA-2 ([7]; 24 h): 1.0 fold
activation of NF-κB signaling pathway ([7]; 24 h): robustly activated
NF-κB %EMAX of MSA-2 ([7]; 24 h, maximal response relative to MSA-2): 100%
EC50 [7]: 17.7 µM

CCc1ccc(NC(=O)Nc2c[nH]c3ccccc23)cc1 [H-151]
effect on agonist- and prodrug-induced IRF reporter signal [6, 10]: completely abolished
effect on agonist- and prodrug-induced NF-κB reporter signal [7, 10]: completely abolished

COCCOCCOCCOCCC(=O)[O][Pt-2]12([O]C(=O)c3cc(F)c(F)cc3NC(=O)c3ccc(-n4ccnc4)nn3)([NH2+][C@@H]3CCCC[C@H]3[NH2+]1)[O]C(=O)C(=O)[O]2 [Ox-SR-PEG-Es]
hydrolytic stability [8]: No significant hydrolysis
original prodrug remaining in presence of AA ([1]; after ∼3 h): only traces
cellular platinum accumulation (THP1-Dual cells [9]): significantly higher platinum levels compared to oxaliplatin
IRF %EMAX of SR-717 [6, 11]: 66%
EC50 [6]: 12.4 µM
NF-κB %EMAX of SR-717 [7, 11]: 52%
EC50 [7]: 35.1 µM

CC(=O)[O][Pt-2]12([O]C(=O)c3cc(F)c(F)cc3N)([NH2+][C@@H]3CCCC[C@H]3[NH2+]1)[O]C(=O)C(=O)[O]2 [Ox-Bz-F2-NH2]
original compound left in presence of AA [1]: approximately 80%
